Experimental data reported in the NIST ThermoML archive (doi:10.1016/j.jct.2013.06.003).
Values joined by “and” are separate entries in the source; they are usually repeats but may differ in a detail not shown here. Equal values may be shown once. Numbers after ± are expanded uncertainties.

Tests used:
[1] = Molar enthalpy of transition or fusion; details: Crystal; DSC
[2] = Crystal; for vapor or sublimation pressure: Calculated from knudsen effusion weight loss; for Normal melting temperature: DTA

N#Cc1cccc(Br)c1 [3-bromobenzonitrile]
Details | Molar enthalpy of transition or fusion [kcal/mol]
[1] | 3.97 ± 0.454

N#Cc1ccc(I)cc1 [4-iodobenzonitrile]
[2]
Details | vapor or sublimation pressure
294.17 K | 0.000111 ± 6e-06 kPa and 0.000109 ± 5e-06 kPa and 0.00011 ± 6e-06 kPa
296.2 K | 0.000141 ± 7e-06 kPa and 0.000143 ± 7e-06 kPa
298.18 K | 0.000182 ± 9e-06 kPa
300.18 K | 0.000226 ± 1.1e-05 kPa and 0.000228 ± 1.1e-05 kPa and 0.000223 ± 1.1e-05 kPa
302.26 K | 0.000294 ± 1.5e-05 kPa and 0.000296 ± 1.5e-05 kPa
304.29 K | 0.000353 ± 1.8e-05 kPa and 0.000365 ± 1.8e-05 kPa and 0.000368 ± 1.8e-05 kPa
306.28 K | 0.000452 ± 2.3e-05 kPa and 0.000454 ± 2.3e-05 kPa and 0.000444 ± 2.2e-05 kPa
308.2 K | 0.000562 ± 2.8e-05 kPa and 0.000563 ± 2.8e-05 kPa and 0.000565 ± 2.8e-05 kPa
310.15 K | 0.000715 ± 3.6e-05 kPa and 0.000717 ± 3.6e-05 kPa and 0.000701 ± 3.5e-05 kPa
312.16 K | 0.000889 ± 4.5e-05 kPa and 0.000882 ± 4.4e-05 kPa
314.05 K | 0.00108 ± 0.00011 kPa and 0.00106 ± 0.00011 kPa

Details | Molar enthalpy of transition or fusion [kcal/mol] | Normal melting temperature [°C]
[1] | 5.64 ± 0.263 | –
[2] | – | 125.46 ± 0.39

N#Cc1ccccc1Br [2-bromobenzonitrile]
Details | Molar enthalpy of transition or fusion [kcal/mol] | Normal melting temperature [°C]
[1] | 4.11 ± 0.167 | –
[2] | – | 54.0 ± 0.7

N#Cc1ccc(Br)cc1 [4-bromobenzonitrile]
Details | Molar enthalpy of transition or fusion [kcal/mol]
[1] | 4.95 ± 0.263

N#Cc1ccccc1I [2-iodobenzonitrile]
[2]
Details | vapor or sublimation pressure
283.19 K | 0.000104 ± 5e-06 kPa and 0.000103 ± 5e-06 kPa and 0.000101 ± 5e-06 kPa
285.15 K | 0.000128 ± 6e-06 kPa and 0.000129 ± 6e-06 kPa and 0.000125 ± 6e-06 kPa
287.17 K | 0.00016 ± 8e-06 kPa and 0.000159 ± 8e-06 kPa and 0.000168 ± 8e-06 kPa
288.91 K | 0.000199 ± 1e-05 kPa and 0.000205 ± 1e-05 kPa
291.13 K | 0.000263 ± 1.3e-05 kPa and 0.000257 ± 1.3e-05 kPa and 0.000268 ± 1.3e-05 kPa
293.15 K | 0.000336 ± 1.7e-05 kPa and 0.000341 ± 1.7e-05 kPa and 0.000346 ± 1.7e-05 kPa
295.15 K | 0.000419 ± 2.1e-05 kPa and 0.000414 ± 2.1e-05 kPa and 0.000427 ± 2.1e-05 kPa
297.15 K | 0.000521 ± 2.6e-05 kPa and 0.000547 ± 2.7e-05 kPa
299.12 K | 0.000651 ± 3.3e-05 kPa and 0.00066 ± 3.3e-05 kPa and 0.000671 ± 3.4e-05 kPa
301.15 K | 0.000857 ± 4.3e-05 kPa and 0.000861 ± 4.3e-05 kPa and 0.000864 ± 4.3e-05 kPa
303.17 K | 0.00103 ± 0.0001 kPa

Details | Molar enthalpy of transition or fusion [kcal/mol] | Normal melting temperature [°C]
[1] | 3.97 ± 0.311 | –
[2] | – | 53.54 ± 0.39

N#Cc1cccc(I)c1 [3-iodobenzonitrile]
[2]
Details | vapor or sublimation pressure
276.18 K | 9.88e-05 ± 5e-06 kPa and 0.0001 ± 5e-06 kPa and 9.93e-05 ± 5e-06 kPa
278.16 K | 0.000122 ± 6e-06 kPa and 0.000125 ± 6e-06 kPa and 0.000123 ± 6e-06 kPa
280.26 K | 0.000161 ± 8e-06 kPa and 0.00016 ± 8e-06 kPa and 0.000163 ± 8e-06 kPa
282.15 K | 0.000204 ± 1e-05 kPa and 0.000206 ± 1e-05 kPa and 0.000207 ± 1e-05 kPa
284.15 K | 0.000269 ± 1.3e-05 kPa
286.17 K | 0.00034 ± 1.7e-05 kPa and 0.000339 ± 1.7e-05 kPa and 0.000336 ± 1.7e-05 kPa
288.17 K | 0.000437 ± 2.2e-05 kPa and 0.000432 ± 2.2e-05 kPa and 0.000441 ± 2.2e-05 kPa
290.14 K | 0.000539 ± 2.7e-05 kPa and 0.000537 ± 2.7e-05 kPa and 0.00054 ± 2.7e-05 kPa
292.13 K | 0.00069 ± 3.5e-05 kPa and 0.000686 ± 3.4e-05 kPa and 0.000699 ± 3.5e-05 kPa
294.21 K | 0.000869 ± 4.4e-05 kPa and 0.000876 ± 4.4e-05 kPa and 0.000882 ± 4.4e-05 kPa
296.14 K | 0.0011 ± 0.00011 kPa and 0.00111 ± 0.00011 kPa

Details | Molar enthalpy of transition or fusion [kcal/mol] | Normal melting temperature [°C]
[1] | 3.61 ± 0.311 | –
[2] | – | 40.12 ± 0.39
